The text below walks through data of patent publication US20260315461A1, “NEW 5H-PYRROLO[3,2-B:5,4-C']DIPYRIDINE DERIVATIVES AND 6,7,8,9-TETRAHYDRO-5H-PYRROLO[3,2-B:5,4-C']DIPYRIDINE USEFUL IN THE TREATMENT OF CANCER” (INSTITUT REGIONAL DU CANCER DE MONTPELLIER, priority 2023, published 2026).

For one assay, the target named is T1, Chromatin-MDM2 (Homo sapiens, UniProt Q00987).
T1 construct: endogenous in cells; host or cells: IB111
Kind of assay: MDM2 degradation by western blot and immunofluorescence, chromatin-bound MDM2 (IB111 cells dependent on C-MDM2). Type of assay: cell-based. Conditions: IB111 (presence of C-MDM2), degradation efficacy; for Dmax: human. How it is done: (§1) MDM2 degradation is measured by western blot and immunofluorescence.
(§2) Cells were seeded in 6-well plates (Sarsted) in complete DMEM medium as to obtain triplicates for each condition (500 000 cells/well). After 24 hours, the compounds were added to the cells. Then, 18 hours later cells were collected for western blotting or immunofluorescence. • Western Blot: Cells were collected in Laemmli buffer, boiled and analyzed in 8% acrylamide gel. • Immunofluorescence: Cancer cells were fixed with paraformaldehyde (PFA) 4% for 15 minutes then permeabilized for 15 minutes at RT with phosphate-buffered saline (PBS) Triton 0.1% and blocked with Phosphate buffered saline-[…] (PBS-BSA) 0.3% for 1 hour at RT before overnight incubation at 4° C. with an anti-mouse monoclonal antibody against MDM2 (MABE340 Millipore). Immunodetection was performed using an Alexa 488-conjugated anti-mouse IgG antibody (Thermo Fisher) for 45 minutes at RT. Cover glasses were mounted with Mowiol (Biovalley) and DAPI (Sigma) before analysis on a Zeiss apotome.

In another assay the test system is Hpac/ZR75.1 cells. Kind of assay: Cell survival, Sulforhodamine B assay (SRB assay), cancer cells not exhibiting recruitment of MDM2 to chromatin. Type of assay: cell-based. The procedure:
(§3) Cell survival after MDM2 inhibitor treatment (IC50) was determined using the Sulforhodamine B assay (SRB assay).
(§4) Cells were seeded in 96-well plates (Sarsted) in complete DMEM medium as to obtain triplicates for each condition (5 000 cells/well). After 24 hours, serial dilutions of the indicated compounds were added to the cells. Then 48 hours later, cells were fixed by adding a 10% Trichloroacetic acid solution and stained with a 0,4% SRB solution in 1% acetic acid. Fixed SRB was finally dissolved in 10 mM Tris-HCl solution and 560 nm absorbance was read using a PHERAstar FSX plate reader.

A further assay deals with T2, Cytoplasmic-MDM2 (Homo sapiens, UniProt Q00987).
T2 construct: endogenous in cells; host or cells: Hpac/ZR75.1
T2 sequence (Q00987 whole entry): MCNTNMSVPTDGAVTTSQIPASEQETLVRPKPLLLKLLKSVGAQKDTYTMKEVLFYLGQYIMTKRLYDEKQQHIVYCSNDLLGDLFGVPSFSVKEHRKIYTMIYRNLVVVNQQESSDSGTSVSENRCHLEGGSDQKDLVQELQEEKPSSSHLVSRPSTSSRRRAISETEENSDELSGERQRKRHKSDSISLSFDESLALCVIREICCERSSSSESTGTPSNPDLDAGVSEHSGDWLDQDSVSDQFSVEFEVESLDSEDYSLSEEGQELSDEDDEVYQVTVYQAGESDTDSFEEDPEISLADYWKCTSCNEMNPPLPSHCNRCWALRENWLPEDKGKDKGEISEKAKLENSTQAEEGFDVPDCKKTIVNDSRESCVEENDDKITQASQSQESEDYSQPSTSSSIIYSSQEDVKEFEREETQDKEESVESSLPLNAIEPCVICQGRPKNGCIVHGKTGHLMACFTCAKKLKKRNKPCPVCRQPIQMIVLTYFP
Kind of assay: MDM2 degradation by western blot and immunofluorescence, cytoplasmic MDM2 (Hpac/ZR75.1 cells, absence of C-MDM2). Conditions: Hpac/ZR75.1 (absence of C-MDM2), degradation efficacy; for Dmax: human. Type of assay: cell-based. How it is done:
as §1, §2

The subject of the next assay is liposarcoma cells IB111. Put plainly: In vivo anti-tumor efficacy in nude mice engrafted with liposarcoma cells IB111. Conditions: 20 mg/kg i.p. daily for 3 weeks, from tumor 100 mm^3. The procedure: In order to support the in vitro results, in vivo evaluation of the anti-tumor efficacy was performed on compound (4) according to the present invention having evidenced the antitumoral activity in examples 9 and 10 above.
10 mice per group were engrafted with liposarcoma cells IB111. Mice were housed in a pathogen-free barrier facility in accordance with the regional ethics committee for animal [COMPOUND LEFT OUT] (n° CEEA-LR-12067). When tumor reached 100 mm^3, the compound of formula (I) was administered by intra peritoneal i.p. injection at the dose of 20 mg/kg daily for 3 weeks.

The subject of a further assay is IB111 cells. Kind of assay: Cell survival, Sulforhodamine B assay (SRB assay), cancer cells exhibiting recruitment of MDM2 to chromatin. Type of assay: cell-based. How it is done: as §3, §4
The next assay deals with MDM2-p53 interaction. The conditions noted are these: WO2016/049453 and Wang et al. 2014; cited from earlier work.
The next assay deals with MDM2 protein. The conditions noted are these: WO2016/049453 and Wang et al. 2014; cited from earlier work.
Assay [1] relates to p53 wild type, p53 mutant and p53 null cancer cells. The conditions noted are these: cited from earlier work.

Structures are written as SMILES. Counter-ions that a name gives are not always drawn.

T1 sequence (Q00987 whole entry): as above

In the case of `COc1ccc2[nH]c3c(-c4cccc5ccccc45)nccc3c2n1` [Compound 1, 2-methoxy-6-(naphthalen-1-yl)-5H-pyrrolo[3,2-b:5,4-c′]dipyridine], the Chromatin-MDM2 degradation entry on Chromatin-MDM2 is listed as “+++ (+++≥80%)”. Also, in the assay on Hpac/ZR75.1 cells, the “efficacy on cancer cells not exhibiting recruitment of MDM2 to chromatin (cell survival)” value was “not efficient”.

Regarding `COc1ccc2[nH]c3c(-c4ccnc5nccnc45)nccc3c2n1` [Compound 3, 2-methoxy-6-(pyrido[2,3-b]pyrazin-8-yl)-5H-pyrrolo[3,2-b:5,4-c′]dipyridine], the Dmax was under 25% at Cytoplasmic-MDM2 and 25 to 40% on Chromatin-MDM2.

`COc1ccc2[nH]c3c(-c4cccc5ccccc45)nccc3c2n1.Cl` [Compound 4, 2-methoxy-6-(naphthalen-1-yl)-5H-pyrrolo[3,2-b:5,4-c′]dipyridine hydrochloride]: at Cytoplasmic-MDM2, the Cytoplasmic-MDM2 degradation entry is on record as “− (<25%: no degradation: indicated“−” in the table)”. Moreover, the tumor reduction entry with liposarcoma cells IB111 was “greater than 75%”. The Chromatin-MDM2 degradation result at Chromatin-MDM2 is “+++ (+++≥80%)”. Moreover, the “efficacy on cancer cells not exhibiting recruitment of MDM2 to chromatin (cell survival)” value in the assay with Hpac/ZR75.1 cells is recorded as “not efficient”.

For the molecule `COc1ccc2[nH]c3c(-c4ccnc5ccccc45)nccc3c2n1` [Compound 6, 2-methoxy-6-(quinolin-4-yl)-5H-pyrrolo[3,2-b:5,4-c′]dipyridine], the results for the Dmax on Cytoplasmic-MDM2 and on Chromatin-MDM2 were under 25% and 25 to 40%, respectively.

Turning to `COc1ccc2[nH]c3c(-c4cccc5ccccc45)nccc3c2n1.O=C(O)/C=C/C(=O)O` [Compound 10, 2-methoxy-6-(naphthalen-1-yl)-5H-pyrrolo[3,2-b:5,4-c′]dipyridine fumarate], at Cytoplasmic-MDM2, the Cytoplasmic-MDM2 degradation entry is “− (<25%: no degradation: indicated“−” in the table)”. Moreover, the Chromatin-MDM2 degradation result at Chromatin-MDM2 is listed as “+++ (+++≥80%)”. Also, the “efficacy on cancer cells not exhibiting recruitment of MDM2 to chromatin (cell survival)” value in the assay on Hpac/ZR75.1 cells is “not efficient”.

On Cytoplasmic-MDM2, `COc1ccc2[nH]c3c(-c4cccc5ccccc45)nccc3c2n1.O=C(O)CC(O)(CC(=O)O)C(=O)O` [Compound 11, 2-methoxy-6-(naphthalen-1-yl)-5H-pyrrolo[3,2-b:5,4-c′]dipyridine 2-hydroxypropane-1,2,3-tricarboxylate] came in with a Dmax of under 25%. Besides, the Chromatin-MDM2 degradation entry at Chromatin-MDM2 is “+++ (+++≥80%)”. In addition, the “efficacy on cancer cells not exhibiting recruitment of MDM2 to chromatin (cell survival)” value with Hpac/ZR75.1 cells was “not efficient”.

Take `COc1ccc2[nH]c3c(-c4cccc5ccccc45)nccc3c2n1.O=P(O)(O)O` [Compound 12, 2-methoxy-6-(naphthalen-1-yl)-5H-pyrrolo[3,2-b:5,4-c′]dipyridine phosphate]: the Cytoplasmic-MDM2 degradation entry on Cytoplasmic-MDM2 is given as “− (<25%: no degradation: indicated“−” in the table)”. Moreover, the “efficacy on cancer cells not exhibiting recruitment of MDM2 to chromatin (cell survival)” value in the assay with Hpac/ZR75.1 cells was “not efficient”.

For the molecule `COc1ccc2[nH]c3c(-c4cccc5ccccc45)nccc3c2n1` [Compound 13, 2-methoxy-6-(naphthalen-1-yl)-5H-pyrrolo[3,2-b:5,4-c′]dipyridine sulfate], at Cytoplasmic-MDM2, the Cytoplasmic-MDM2 degradation entry is on record as “− (<25%: no degradation: indicated“−” in the table)”. Besides, on Chromatin-MDM2 (sulfate), the Chromatin-MDM2 degradation result is given as “++ (40%≤++<80%)”.

As to `COc1ccc2[nH]c3c(-c4cccc5c4CCCC5)nccc3c2n1` [Compound 14, 2-methoxy-6-(5,6,7,8-tetrahydronaphthalen-1-yl)-5H-pyrrolo[3,2-b:5,4-c′]dipyridine], the Dmax at Cytoplasmic-MDM2 was under 25%; at Chromatin-MDM2, at least 80%. Also, in the assay with Hpac/ZR75.1 cells, the “efficacy on cancer cells not exhibiting recruitment of MDM2 to chromatin (cell survival)” value was “not efficient”.

As for `COc1ccc2[nH]c3c(-c4ccc(F)c5ccccc45)nccc3c2n1` [Compound 15, 6-(4-fluoronaphthalen-1-yl)-2-methoxy-5H-pyrrolo[3,2-b:5,4-c′]dipyridine], the Dmax on Cytoplasmic-MDM2 was under 25%; on Chromatin-MDM2 it was 40 to 80%. Besides, in the assay on Hpac/ZR75.1 cells, the “efficacy on cancer cells not exhibiting recruitment of MDM2 to chromatin (cell survival)” value was “not efficient”.

As to `COc1ccc2[nH]c3c(-c4cccc5c4CCCC5)nccc3c2n1.Cl` [Compound 16, 2-methoxy-6-(5,6,7,8-tetrahydronaphthalen-1-yl)-5H-pyrrolo[3,2-b:5,4-c′]dipyridine hydrochloride], the Cytoplasmic-MDM2 degradation result at Cytoplasmic-MDM2 was “− (<25%: no degradation: indicated“−” in the table)”. Moreover, the Chromatin-MDM2 degradation entry at Chromatin-MDM2 is on record as “+++ (+++≥80%)”. Besides, the “efficacy on cancer cells not exhibiting recruitment of MDM2 to chromatin (cell survival)” value in the assay with Hpac/ZR75.1 cells is reported as “not efficient”.

Take `COc1ccc2[nH]c3c(-c4ccc(F)c5ccccc45)nccc3c2n1.Cl` [Compound 17, 6-(4-fluoronaphthalen-1-yl)-2-methoxy-5H-pyrrolo[3,2-b:5,4-c′]dipyridine hydrochloride]: the Cytoplasmic-MDM2 degradation result at Cytoplasmic-MDM2 is “− (<25%: no degradation: indicated“−” in the table)”.

As to `Clc1ccc2[nH]c3c(-c4cccc5ccccc45)nccc3c2n1` [Compound 18, 2-chloro-6-(naphthalen-1-yl)-5H-pyrrolo[3,2-b:5,4-c′]dipyridine], the Dmax on Cytoplasmic-MDM2 was under 25%; on Chromatin-MDM2 it was 25 to 40%.

With `Cl.Clc1ccc2[nH]c3c(-c4cccc5ccccc45)nccc3c2n1` [Compound 19, 2-chloro-6-(naphthalen-1-yl)-5H-pyrrolo[3,2-b:5,4-c′]dipyridine hydrochloride], on Cytoplasmic-MDM2, the Cytoplasmic-MDM2 degradation result was “− (<25%: no degradation: indicated“−” in the table)”. The IC50 with IB111 cells was under 500 nM. Further, the Chromatin-MDM2 degradation result at Chromatin-MDM2 was “++ (40%≤++<80%)”. For the same molecule, the “efficacy on cancer cells not exhibiting recruitment of MDM2 to chromatin (cell survival)” value with Hpac/ZR75.1 cells is “not efficient”.

On to `COc1ccc2[nH]c3c(-c4cc(F)cc5ccccc45)nccc3c2n1.Cl` [Compound 20, 6-(3-fluoronaphthalen-1-yl)-2-methoxy-5H-pyrrolo[3,2-b:5,4-c′]dipyridine hydrochloride], for which the Dmax is under 25% on Cytoplasmic-MDM2 and 40 to 80% on Chromatin-MDM2. For the same molecule, the IC50 in the assay with IB111 cells was under 500 nM. The “efficacy on cancer cells not exhibiting recruitment of MDM2 to chromatin (cell survival)” value with Hpac/ZR75.1 cells is recorded as “not efficient”.

As to `COc1ccc2[nH]c3c(-c4cccc5c(F)cccc45)nccc3c2n1` [Compound 21, 6-(5-fluoronaphthalen-1-yl)-2-methoxy-5H-pyrrolo[3,2-b:5,4-c′]dipyridine], the figures for the Dmax at Cytoplasmic-MDM2 and on Chromatin-MDM2 were under 25% and 25 to 40%, respectively.

For the molecule `COc1ccc2[nH]c3c(-c4cccc5c(F)cccc45)nccc3c2n1.Cl` [Compound 22, 6-(5-fluoronaphthalen-1-yl)-2-methoxy-5H-pyrrolo[3,2-b:5,4-c′]dipyridine hydrochloride], the Cytoplasmic-MDM2 degradation entry on Cytoplasmic-MDM2 is on record as “− (<25%: no degradation: indicated“−” in the table)”. Moreover, the Chromatin-MDM2 degradation result at Chromatin-MDM2 is “+ (25%≤+<40%)”.

Turning to `COc1ccc2[nH]c3c(-c4cccc5cccc(F)c45)nccc3c2n1` [Compound 23, 6-(8-fluoronaphthalen-1-yl)-2-methoxy-5H-pyrrolo[3,2-b:5,4-c′]dipyridine hydrochloride], the Dmax on Cytoplasmic-MDM2 was under 25%; at Chromatin-MDM2, 25 to 40%.

`c1ccc2c(-c3nccc4c3[nH]c3ccc(OC5CC5)nc34)cccc2c1` [Compound 24, 2-cyclopropoxy-6-(naphthalen-1-yl)-5H-pyrrolo[3,2-b:5,4-c′]dipyridine]: the Dmax on Cytoplasmic-MDM2 was under 25%; at Chromatin-MDM2 it was at least 80%. This molecule showed an IC50 with IB111 cells of under 500 nM. Besides, the “efficacy on cancer cells not exhibiting recruitment of MDM2 to chromatin (cell survival)” value with Hpac/ZR75.1 cells is “not efficient”.

For the molecule `Cl.c1ccc2c(-c3nccc4c3[nH]c3ccc(OC5CC5)nc34)cccc2c1` [Compound 25, 2-cyclopropoxy-6-(naphthalen-1-yl)-5H-pyrrolo[3,2-b:5,4-c′]dipyridine hydrochloride], the Cytoplasmic-MDM2 degradation entry on Cytoplasmic-MDM2 is on record as “− (<25%: no degradation: indicated“−” in the table)”. Also, at Chromatin-MDM2, the Chromatin-MDM2 degradation entry was “+++ (+++≥80%)”. In addition, the “efficacy on cancer cells not exhibiting recruitment of MDM2 to chromatin (cell survival)” value in the assay on Hpac/ZR75.1 cells was “not efficient”.

Consider `COc1ccc2[nH]c3c(-c4cccc5ccccc45)nccc3c2c1` [SP-141], for which the “inhibition of the MDM2-p53 interaction” value in the assay with MDM2-p53 interaction is given as “inhibiting the MDM2-p53 interaction”. In addition, the “binding to MDM2 protein” value in the assay on MDM2 protein is “directly binding to MDM2 protein”. Also, the anticancer activity result in assay [1] is “able to exert anticancer activity in p53 wild type, p53 mutant and p53 null cancer cells”.
